For the assay, the system named is HBV. As to the kind of experiment: HBV screening assay (viral DNA in baculovirus-HBV transduced HepG2 cells). It is filed as cell-based. The following applies: Hepatitis B virus, HepG2, 72 h, read-out: EC50 (antiviral activity), HBV-transduced HepG2 cells, three days with compound, viral DNA by ELISA. The protocol:
HepG2 cells were transduced using a baculovirus to deliver the HBV genome essentially as previously described (Delaney et al. in Hepatology 1998; 28: 1134-1146). Transduced cells were cultured in supplemented EMEM media with 10% fetal bovine serum in a 5% CO2 incubator at 37° C. for three days in the presence of test compounds. The cells were lysed in a buffer containing 0.5% NP-40 and […] proteinase K. A solid-phase hybridization was performed to capture the viral DNA and to label the target DNA with Digoxigenin-labeled DNA probes. The viral DNA was detected by ELISA, using horseradish peroxidase-conjugated anti-digoxigenin antibodies.
The EC50 values were determined using ExcelFit software from the inhibition values of a titration curve for each compound. For CC50 determinations, the same titration of compounds was co-cultured with non-transduced HepG2 for three days under the conditions described above. The Promega CellTiter 96 Aqueous One Solution Cell Proliferation Assay was used to measure cell proliferation/viability. The CC50 values were determined using ExcelFit software from the inhibition values of the titration curve for each compound.
(ELISA stands for enzyme-linked immunosorbent assay.)

pEC50: −log10 of the molar value. Bounds are passed on as bounds.

Regarding `CC(C)(C)OC(=O)N1CCc2nc3sc(C(N)=O)c(N)c3c(-c3cccs3)c2C1` [Compound 32, 3-Amino-6-tert-butyloxycarbonyl-4-thiophen-2-yl-5,6,7,8-tetrahydro-thieno[2,3-b][1,6]naphthyridine-2-carboxylic acidamide], the pEC50 was less than 5.00.

`Cc1ccc(-c2c3c(nc4sc(C(N)=O)c(N)c24)CCN(Cc2ccccc2)C3)o1` [Compound 33, 3-Amino-6-benzyl-4-(5-methyl-furan-2-yl)-5,6,7,8-tetrahydro-thieno[2,3-b][1,6]naphthyridine-2-carboxylic acidamide]: the negative-log EC50 (pEC50) is less than 5.00.

On to `CC(=O)N1CCc2nc3sc(C(N)=O)c(N)c3c(-c3cccs3)c2C1` [Compound 34, 6-Acetyl-3-amino-4-thiophen-2-yl-5,6,7,8-tetrahydro-thieno[2,3-b][1,6]naphthyridine-2-carboxylic acid amide], for which the pEC50 is less than 5.00.

Consider `CCOC1CCc2c1nc1sc(C(N)=O)c(N)c1c2-c1cccs1` (stereo not shown) [Compound 35, 3-Amino-7-ethoxy-4-thiophen-2-yl-6,7-dihydro-5H-cyclopenta[b]thieno[3,2-e]pyridine-2-carboxylic acid amide], for which the pEC50 was more than 6.00.

For `NC(=O)c1sc2nc3c(c(-c4cccs4)c2c1N)CCC3CC(=O)O` (stereo not shown) [Compound 36, 3-Amino-7-carboxymethyl-4-thiophen-2-yl-6,7-dihydro-5H-cyclopenta[b]thieno[3,2-e]pyridine-2-carboxylic acid amide], the pEC50 was less than 5.00.

`CC1CCc2c1nc1sc(C(N)=O)c(N)c1c2-c1cccs1` (stereo not shown) [Compound 37, 3-Amino-7-methyl-4-thiophen-2-yl-6,7-dihydro-5H-cyclopenta[b]thieno[3,2-e]pyridine-2-carboxylic acid amide]: the pEC50 was more than 6.00.

In the case of `NC(=O)c1sc2nc3c(c(-c4cccs4)c2c1N)CCC3CC(=O)N1CCOCC1` (stereo not shown) [Compound 38, 3-Amino-7-(2-morpholin-4-yl-2-oxo-ethyl)-4-thiophen-2-yl-6,7-dihydro-5H-cyclopenta[b]thieno[3,2-e]pyridine-2-carboxylic acid amide], the negative-log EC50 (pEC50) was less than 5.00.

Consider `NC(=O)c1sc2nc3c(c(-c4cccs4)c2c1N)CCC3CC(=O)NCC(O)c1ccccc1` (stereo not shown) [Compound 39, 3-Amino-7-[(2-hydroxy-2-phenyl-ethylcarbamoyl)-methyl]-4-thiophen-2-yl-6,7-dihydro-5H-cyclopenta[b]thieno[3,2-e]pyridine-2-carboxylic acid amide], for which the pEC50 is less than 5.00.

`COC(=O)CC1CCc2c1nc1sc(C(N)=O)c(N)c1c2-c1cccs1` (stereo not shown) [Compound 40, 3-Amino-7-carbomethoxymethyl-4-thiophen-2-yl-6,7-dihydro-5H-cyclopenta[b]thieno[3,2-e]pyridine-2-carboxylic acid amide]: the negative logarithm of the EC50 (pEC50) is less than 5.00.

With `CCOC(=O)CC1CCc2c1nc1sc(C(N)=O)c(N)c1c2-c1cccs1` (stereo not shown) [Compound 41, 3-Amino-7-carbethoxymethyl-4-thiophen-2-yl-6,7-dihydro-5H-cyclopenta[b]thieno[3,2-e]pyridine-2-carboxylic acid amide], the pEC50 was less than 5.00.

Turning to `CNC(=O)CC1CCc2c1nc1sc(C(N)=O)c(N)c1c2-c1cccs1` (stereo not shown) [Compound 42, 3-Amino-7-methylcarbamoylmethyl-4-thiophen-2-yl-6,7-dihydro-5H-cyclopenta[b]thieno[3,2-e]pyridine-2-carboxylic acid amide], the pEC50 is 5.00 to 6.00.

As for `Cc1ccc(CNC(=O)CC2CCc3c2nc2sc(C(N)=O)c(N)c2c3-c2cccs2)o1` (stereo not shown) [Compound 43, 3-Amino-7-{[(5-methyl-furan-2-ylmethyl)-carbamoyl]-methyl}-4-thiophen-2-yl-6,7-dihydro-5H-cyclopenta[b]thieno[3,2-e]pyridine-2-carboxylic acid amide], the pEC50 was less than 5.00.

As for `COc1ccccc1CNC(=O)CC1CCc2c1nc1sc(C(N)=O)c(N)c1c2-c1cccs1` (stereo not shown) [Compound 44, 3-Amino-7-[(2-methoxy-benzylcarbamoyl)-methyl]-4-thiophen-2-yl-6,7-dihydro-5H-cyclopenta[b]thieno[3,2-e]pyridine-2-carboxylic acid amide], the negative logarithm of the EC50 (pEC50) was less than 5.00.

In the case of `NC(=O)c1sc2nc3c(c(-c4cccs4)c2c1N)CCC3CC(=O)NCc1ccccn1` (stereo not shown) [Compound 45, 3-Amino-7-{[(pyridin-2-ylmethyl)-carbamoyl]-methyl}-4-thiophen-2-yl-6,7-dihydro-5H-cyclopenta[b]thieno[3,2-e]pyridine-2-carboxylic acid amide], the pEC50 was less than 5.00.

In the case of `NC(=O)c1sc2nc3c(c(-c4cccs4)c2c1N)CCC3CC(=O)NCCc1ccccn1` (stereo not shown) [Compound 46, 3-Amino-7-[(2-pyridin-2-yl-ethylcarbamoyl)-methyl]-4-thiophen-2-yl-6,7-dihydro-5H-cyclopenta[b]thieno[3,2-e]pyridine-2-carboxylic acid amide], the pEC50 is less than 5.00.

For the compound `NC(=O)c1sc2nc3c(c(-c4cccs4)c2c1N)CCC3CC(=O)NCc1ccc(C(F)(F)F)cc1` (stereo not shown) [Compound 47, 3-Amino-4-thiophen-2-yl-7-[(4-trifluoromethyl-benzylcarbamoyl)-methyl]-6,7-dihydro-5H-cyclopenta[b]thieno[3,2-e]pyridine-2-carboxylic acid amide], the pEC50 is less than 5.00.

Consider `CC(C)CCNC(=O)CC1CCc2c1nc1sc(C(N)=O)c(N)c1c2-c1cccs1` (stereo not shown) [Compound 48, 3-Amino-7-[(3-methyl-butylcarbamoyl)-methyl]-4-thiophen-2-yl-6,7-dihydro-5H-cyclopenta[b]thieno[3,2-e]pyridine-2-carboxylic acid amide], for which the pEC50 was less than 5.00.

`CN(C)C(=O)CC1CCc2c1nc1sc(C(N)=O)c(N)c1c2-c1cccs1` (stereo not shown) [Compound 49, 3-Amino-7-dimethylcarbamoylmethyl-4-thiophen-2-yl-6,7-dihydro-5H-cyclopenta[b]thieno[3,2-e]pyridine-2-carboxylic acid amide]: the pEC50 is less than 5.00.

`NC(=O)c1sc2nc3c(c(-c4cccs4)c2c1N)CCC3CC(=O)NC1CCC1` (stereo not shown) [Compound 50, 3-Amino-7-cyclobutylcarbamoylmethyl-4-thiophen-2-yl-6,7-dihydro-5H-cyclopenta[b]thieno[3,2-e]pyridine-2-carboxylic acid amide]: the negative-log EC50 (pEC50) is less than 5.00.

Take `NC(=O)c1sc2nc3c(c(-c4cccs4)c2c1N)CCC3CC(=O)NC1CCCCC1` (stereo not shown) [Compound 51, 3-Amino-7-cyclohexylcarbamoylmethyl-4-thiophen-2-yl-6,7-dihydro-5H-cyclopenta[b]thieno[3,2-e]pyridine-2-carboxylic acid amide]: the pEC50 was less than 5.00.

As for `NC(=O)c1sc2nc3c(c(-c4cccs4)c2c1N)CCC3CC(=O)N1CCC(O)CC1` (stereo not shown) [Compound 52, 3-Amino-7-[2-(4-hydroxy-piperidin-1-yl)-2-oxo-ethyl]-4-thiophen-2-yl-6,7-dihydro-5H-cyclopenta[b]thieno[3,2-e]pyridine-2-carboxylic acid amide], the pEC50 is less than 5.00.

With `NC(=O)c1sc2nc3c(c(-c4cccs4)c2c1N)CCC3CC(=O)N1CCN(c2ccccn2)CC1` (stereo not shown) [Compound 53, 3-Amino-7-[2-oxo-2-(4-pyridin-2-yl-piperazin-1-yl)-ethyl]-4-thiophen-2-yl-6,7-dihydro-5H-cyclopenta[b]thieno[3,2-e]pyridine-2-carboxylic acid amide], the pEC50 is less than 5.00.

As a reminder, the pEC50 is the EC50 on a negative log10 scale, so that one unit is a factor of ten.

(Values after US20090029983A1, “NOVEL HETEROCYCLIC COMPOUNDS HAVING ANTI-HBV ACTIVITY” (priority 2005, published 2009).)
